Target: ABCB1 (P-glycoprotein) (Homo sapiens, UniProt P08183)
Assay: Vanadate-sensitive ABCB1 ATPase stimulation in cell membranes (PREDEASY kit); also [3H]-paclitaxel accumulation/efflux in KB-C2 cells
Assay type: biochemical

Sequence of ABCB1 (P-glycoprotein) (P08183 whole entry): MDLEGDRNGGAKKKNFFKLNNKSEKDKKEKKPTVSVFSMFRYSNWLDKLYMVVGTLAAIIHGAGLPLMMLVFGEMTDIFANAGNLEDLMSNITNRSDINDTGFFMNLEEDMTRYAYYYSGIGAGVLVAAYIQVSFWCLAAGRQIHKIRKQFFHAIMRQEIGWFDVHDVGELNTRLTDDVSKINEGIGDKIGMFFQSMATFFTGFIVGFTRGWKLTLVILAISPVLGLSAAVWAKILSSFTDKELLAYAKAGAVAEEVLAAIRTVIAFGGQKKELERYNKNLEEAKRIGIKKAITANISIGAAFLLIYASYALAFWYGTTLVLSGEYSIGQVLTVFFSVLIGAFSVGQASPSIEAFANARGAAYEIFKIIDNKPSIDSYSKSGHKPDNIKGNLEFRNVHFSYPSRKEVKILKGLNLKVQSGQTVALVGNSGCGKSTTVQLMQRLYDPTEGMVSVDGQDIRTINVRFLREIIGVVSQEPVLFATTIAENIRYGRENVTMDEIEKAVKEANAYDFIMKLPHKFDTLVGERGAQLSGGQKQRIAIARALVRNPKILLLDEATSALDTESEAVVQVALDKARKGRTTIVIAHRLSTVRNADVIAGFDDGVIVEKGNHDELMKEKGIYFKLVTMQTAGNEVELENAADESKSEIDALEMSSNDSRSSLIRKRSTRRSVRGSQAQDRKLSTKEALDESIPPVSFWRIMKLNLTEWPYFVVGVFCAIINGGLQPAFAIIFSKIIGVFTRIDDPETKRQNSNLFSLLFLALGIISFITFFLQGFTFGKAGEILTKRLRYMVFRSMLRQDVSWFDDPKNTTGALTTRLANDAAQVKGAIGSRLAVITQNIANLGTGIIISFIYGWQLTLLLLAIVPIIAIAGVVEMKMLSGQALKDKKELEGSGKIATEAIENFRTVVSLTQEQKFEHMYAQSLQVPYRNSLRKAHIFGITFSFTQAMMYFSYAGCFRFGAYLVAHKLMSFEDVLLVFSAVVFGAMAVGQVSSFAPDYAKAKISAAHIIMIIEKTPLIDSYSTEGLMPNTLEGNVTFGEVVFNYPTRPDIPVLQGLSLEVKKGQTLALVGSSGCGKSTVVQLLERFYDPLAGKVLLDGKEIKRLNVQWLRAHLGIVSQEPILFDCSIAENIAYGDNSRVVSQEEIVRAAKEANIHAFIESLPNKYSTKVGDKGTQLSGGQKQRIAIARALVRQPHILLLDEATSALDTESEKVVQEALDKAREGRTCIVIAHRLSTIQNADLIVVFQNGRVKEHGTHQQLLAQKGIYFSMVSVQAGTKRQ

EC50: 470 nM
Structure (SMILES): COc1ccc2cc1Oc1ccc(cc1)C[C@H]1c3cc(c(OC)cc3CCN1C)Oc1c(OC)c(OC)cc3c1[C@H](C2)N(C)CC3 [tetrandrine]

Source: PMC6930469, “Tetrandrine Interaction with ABCB1 Reverses Multidrug Resistance in Cancer Cells Through Competition with Anti-Cancer Drugs Followed by Downregulation of ABCB1 Expression” (Molecules, 2019)
